Article PMC8330742, “New benzothieno[2,3-c]pyridines as non-steroidal CYP17 inhibitors: design, synthesis, anticancer screening, apoptosis induction, and in silico ADME profile studies” (Journal of Enzyme Inhibition and Medicinal Chemistry, 2021)

Experiments:
CAKI-1 = assay: NCI-60 SRB screen; format: cell-based, human; conditions: Homo sapiens; single dose 10^−5 M; CAKI-1, Renal cancer; read-out: Growth inhibition (%)
UACC-62 = assay: NCI-60 SRB screen; format: cell-based, human; conditions: Homo sapiens; single dose 10^−5 M; UACC-62, Melanoma; read-out: Growth inhibition (%)
ACHN = assay: NCI-60 SRB screen; format: cell-based; conditions: Homo sapiens, single dose 10^−5 M, Renal cancer, read-out: Growth inhibition (%)
M14 = assay: NCI-60 SRB screen; format: cell-based, human; conditions: Homo sapiens; single dose 10^−5 M; M14, Melanoma; read-out: Growth inhibition (%)
786-0 = assay: NCI-60 SRB screen; format: cell-based; conditions: Homo sapiens; single dose 10^−5 M; 786-0, Renal cancer; read-out: Growth inhibition (%)
NCI-H460 = assay: NCI-60 SRB screen; format: cell-based, human; conditions: Homo sapiens; single dose 10^−5 M; NCI-H460, Non-small cell lung carcinoma; read-out: Growth inhibition (%)
HOP-92 = assay: NCI-60 SRB screen; format: cell-based, human; conditions: Homo sapiens; single dose 10^−5 M; HOP-92, Non-small cell lung carcinoma; read-out: Growth inhibition (%)
SK-MEL-28 = assay: NCI-60 SRB screen; format: cell-based; conditions: Homo sapiens; single dose 10^−5 M; SK-MEL-28, Melanoma; read-out: Growth inhibition (%)
MDA-MB-435 = assay: NCI-60 SRB screen; format: cell-based; conditions: Homo sapiens, MDA-MB-435, read-out: Growth inhibition (%)
TK-10 = assay: NCI-60 SRB screen; format: cell-based, human; conditions: Homo sapiens; single dose 10^−5 M; TK-10, Renal cancer; read-out: Growth inhibition (%)
KM12 = assay: NCI-60 SRB screen; format: cell-based, human; conditions: Homo sapiens; single dose 10^−5 M; KM12, Colon cancer; read-out: Growth inhibition (%)
MOLT-4 = assay: NCI-60 SRB screen; format: cell-based; conditions: Homo sapiens; single dose 10^−5 M; MOLT-4, Leukaemia; read-out: Growth inhibition (%)
HCT-15 = assay: NCI-60 SRB screen; format: cell-based, human; conditions: Homo sapiens; single dose 10^−5 M; HCT-15, Colon cancer; read-out: Growth inhibition (%)
SN12C = assay: NCI-60 SRB screen; format: cell-based, human; conditions: Homo sapiens, SN12C; single dose 10^−5 M; SN 12 C, Renal cancer; read-out: Growth inhibition (%)
SF-295 = assay: NCI-60 SRB screen; format: cell-based, human; conditions: Homo sapiens; single dose 10^−5 M; SF-295, CNS cancer; read-out: Growth inhibition (%)
SF-268 = assay: NCI-60 SRB screen; format: cell-based, human; conditions: Homo sapiens; single dose 10^−5 M; SF-268, CNS cancer; read-out: Growth inhibition (%)
[1] = test system: panel of 60 cancer cell lines; assay: NCI-60 SRB screen, mean or range over the panel; format: cell-based, human; conditions: Homo sapiens; mean over the cell lines; single dose 10^−5 M; read-out: Mean growth inhibition (%)
NCI-H23 = assay: NCI-60 SRB screen; format: cell-based, human; conditions: Homo sapiens; single dose 10^−5 M; NCI-H23, Non-small cell lung carcinoma; read-out: Growth inhibition (%)
UO-31 = assay: NCI-60 SRB screen; format: cell-based, human; conditions: Homo sapiens; single dose 10^−5 M; UO-31, Renal cancer; read-out: Growth inhibition (%)
OVCAR-8 = assay: NCI-60 SRB screen; format: cell-based, human; conditions: Homo sapiens; single dose 10^−5 M; OVCAR-8, Ovarian cancer; read-out: Growth inhibition (%)
HL-60(TB) = assay: NCI-60 SRB screen; format: cell-based, human; conditions: Homo sapiens; single dose 10^−5 M; HL-60(TB), Leukaemia; read-out: Growth inhibition (%)
COLO 205 = assay: NCI-60 SRB screen; format: cell-based, human; conditions: Homo sapiens; single dose 10^−5 M; COLO 205, Colon cancer; read-out: Growth inhibition (%)
HOP-62 = assay: NCI-60 SRB screen; format: cell-based, human; conditions: Homo sapiens; single dose 10^−5 M; HOP-62, Non-small cell lung carcinoma; read-out: Growth inhibition (%)
LOX IMVI = assay: NCI-60 SRB screen; format: cell-based, human; conditions: Homo sapiens, single dose 10^−5 M, Melanoma, read-out: Growth inhibition (%)
RXF 393 = assay: NCI-60 SRB screen; format: cell-based, human; conditions: Homo sapiens; single dose 10^−5 M; RXF 393, Renal cancer; read-out: Growth inhibition (%)
SK-MEL-2 = assay: NCI-60 SRB screen; format: cell-based, human; conditions: Homo sapiens; single dose 10^−5 M; SK-MEL-2, Melanoma; read-out: Growth inhibition (%)
NCI-H522 = assay: NCI-60 SRB screen; format: cell-based, human; conditions: Homo sapiens; single dose 10^−5 M; NCI-H522, Non-small cell lung carcinoma; read-out: Growth inhibition (%)
SK-MEL-5 = assay: NCI-60 SRB screen; format: cell-based, human; conditions: Homo sapiens; single dose 10^−5 M; SK-MEL-5, Melanoma; read-out: Growth inhibition (%)
K-562 = assay: NCI-60 SRB screen; format: cell-based, human; conditions: Homo sapiens, K562; single dose 10^−5 M; K-562, Leukaemia; read-out: Growth inhibition (%)
HT-29 = assay: NCI-60 SRB screen; format: cell-based; conditions: Homo sapiens; single dose 10^−5 M; HT-29, Colon cancer; read-out: Growth inhibition (%)
UACC-257 = assay: NCI-60 SRB screen; format: cell-based, human; conditions: Homo sapiens; single dose 10^−5 M; UACC-257, Melanoma; read-out: Growth inhibition (%)
HCT-116 = assay: NCI-60 SRB screen; format: cell-based, human; conditions: Homo sapiens; single dose 10^−5 M; HCT-116, Colon cancer; read-out: Growth inhibition (%)
NCI-H226 = assay: NCI-60 SRB screen; format: cell-based, human; conditions: Homo sapiens; single dose 10^−5 M; NCI-H226, Non-small cell lung carcinoma; read-out: Growth inhibition (%)
NCI-H322M = assay: NCI-60 SRB screen; format: cell-based, human; conditions: Homo sapiens, single dose 10^−5 M, Non-small cell lung carcinoma, read-out: Growth inhibition (%)
A549/ATCC = assay: NCI-60 SRB screen; format: cell-based, human; conditions: Homo sapiens, single dose 10^−5 M, Non-small cell lung carcinoma, read-out: Growth inhibition (%)
OVCAR-3 = assay: NCI-60 SRB screen; format: cell-based, human; conditions: Homo sapiens; single dose 10^−5 M; OVCAR-3, Ovarian cancer; read-out: Growth inhibition (%)
CCRF-CEM = assay: NCI-60 SRB screen; format: cell-based; conditions: Homo sapiens, single dose 10^−5 M, Leukaemia, read-out: Growth inhibition (%)
HCC-2998 = assay: NCI-60 SRB screen; format: cell-based, human; conditions: Homo sapiens; single dose 10^−5 M; HCC-2998, Colon cancer; read-out: Growth inhibition (%)
IGROV1 = assay: NCI-60 SRB screen; format: cell-based, human; conditions: Homo sapiens, IGROV-1; single dose 10^−5 M; IGROV1, Ovarian cancer; read-out: Growth inhibition (%)
MALME-3M = assay: NCI-60 SRB screen; format: cell-based, human; conditions: Homo sapiens, single dose 10^−5 M, Melanoma, read-out: Growth inhibition (%)
SR = assay: NCI-60 SRB screen; format: cell-based; conditions: Homo sapiens, single dose 10^−5 M, Leukaemia, read-out: Growth inhibition (%)
OVCAR-4 = assay: NCI-60 SRB screen; format: cell-based, human; conditions: Homo sapiens; single dose 10^−5 M; OVCAR-4, Ovarian cancer; read-out: Growth inhibition (%)
NCI/ADR-RES = assay: NCI-60 SRB screen; format: cell-based, human; conditions: Homo sapiens, single dose 10^−5 M, Ovarian cancer, read-out: Growth inhibition (%)
EKVX = assay: NCI-60 SRB screen; format: cell-based, human; conditions: Homo sapiens, single dose 10^−5 M, Non-small cell lung carcinoma, read-out: Growth inhibition (%)
SW-620 = assay: NCI-60 SRB screen; format: cell-based; conditions: Homo sapiens; single dose 10^−5 M; SW-620, Colon cancer; read-out: Growth inhibition (%)

## CCN1CCN(C2=C(C#N)c3c(sc4c(F)cccc34)C(c3cccc([N+](=O)[O-])c3)N2)CC1 (stereo not drawn) [Compound 8d, 4-Cyano-3-(4-ethylpiperazin-1-yl)-8-fluoro-1-(3-nitrophenyl)-1,2-dihydro [1]benzothieno[2,3-c]pyridine]
CAKI-1
  inhibition at 10 µM: 25.2%
UACC-62
  inhibition at 10 µM: 6.81%
ACHN
  inhibition at 10 µM: 9.28%
M14
  inhibition at 10 µM: 4.65%
786-0
  inhibition at 10 µM: -9.68%
NCI-H460
  inhibition at 10 µM: -1.12%
HOP-92
  inhibition at 10 µM: 18.9%
SK-MEL-28
  inhibition at 10 µM: -15.8%
MDA-MB-435
  inhibition at 10 µM: -7.84%
TK-10
  inhibition at 10 µM: -37%
KM12
  inhibition at 10 µM: -0.49%
MOLT-4
  inhibition at 10 µM: 8.62%
HCT-15
  inhibition at 10 µM: -6.34%
SN12C
  inhibition at 10 µM: 1.95%
SF-295
  inhibition at 10 µM: -1.19%
SF-268
  inhibition at 10 µM: 4.87%
[1]
  inhibition at 10 µM: 1.33%
NCI-H23
  inhibition at 10 µM: 3.9%
UO-31
  inhibition at 10 µM: 33.5%
OVCAR-8
  inhibition at 10 µM: -1.56%
HL-60(TB)
  inhibition at 10 µM: -15.6%
COLO 205
  inhibition at 10 µM: -5.97%
HOP-62
  inhibition at 10 µM: 16.1%
LOX IMVI
  inhibition at 10 µM: 4.73%
RXF 393
  inhibition at 10 µM: -3.67%
SK-MEL-2
  inhibition at 10 µM: 1.77%
NCI-H522
  inhibition at 10 µM: 4.68%
SK-MEL-5
  inhibition at 10 µM: -10.7%
K-562
  inhibition at 10 µM: 4.11%
HT-29
  inhibition at 10 µM: -4.51%
UACC-257
  inhibition at 10 µM: -23.7%
HCT-116
  inhibition at 10 µM: 1.31%
NCI-H226
  inhibition at 10 µM: 15.7%
NCI-H322M
  inhibition at 10 µM: 1.85%
A549/ATCC
  inhibition at 10 µM: -2.72%
OVCAR-3
  inhibition at 10 µM: -2.65%
CCRF-CEM
  inhibition at 10 µM: -0.37%
HCC-2998
  inhibition at 10 µM: -12.2%
IGROV1
  inhibition at 10 µM: 23.7%
MALME-3M
  inhibition at 10 µM: -7.54%
SR
  inhibition at 10 µM: 11.8%
OVCAR-4
  inhibition at 10 µM: -0.52%
NCI/ADR-RES
  inhibition at 10 µM: -4.88%
EKVX
  inhibition at 10 µM: 12.5%
SW-620
  inhibition at 10 µM: 3.43%
